Assay results taken from ChEMBL document CHEMBL1128790, “Putative atypical antipsychotics with mixed dopaminergic (D1, D2) and serotonergic (5HT2) activity: The design evolution of ZD3638” (1995).
The source made the active and inactive calls. The rule behind the calls is not given here.

Legend:
[1] = molecular target: D(2) dopamine receptor (Homo sapiens) (UniProt P14416); assay: Compound was tested for dopamine D2 (spiroperidol) receptor binding affinity, at 5000 nM concentration
[2] = (§1) Compound was tested for functional dopamine antagonism in normalization assay (i.e. AS: reversal of apomorphine induced swimming ED50s in mg/kg orally); conditions: po
[3] = molecular target: D(1A) dopamine receptor (Homo sapiens) (UniProt P21728)
Chain of D(1A) dopamine receptor (Homo sapiens) (P21728 whole entry): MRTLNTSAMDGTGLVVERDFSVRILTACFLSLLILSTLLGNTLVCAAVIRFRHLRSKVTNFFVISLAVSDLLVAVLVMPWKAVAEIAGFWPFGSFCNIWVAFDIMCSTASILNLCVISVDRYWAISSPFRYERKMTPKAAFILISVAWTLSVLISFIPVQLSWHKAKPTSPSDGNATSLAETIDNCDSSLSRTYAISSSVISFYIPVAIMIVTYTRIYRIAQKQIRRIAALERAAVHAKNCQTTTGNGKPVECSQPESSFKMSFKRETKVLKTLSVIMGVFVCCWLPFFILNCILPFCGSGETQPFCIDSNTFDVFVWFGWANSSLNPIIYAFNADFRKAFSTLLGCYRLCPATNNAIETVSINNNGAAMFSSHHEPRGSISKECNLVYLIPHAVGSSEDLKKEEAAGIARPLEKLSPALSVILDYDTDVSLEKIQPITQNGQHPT
Description: Dopamine D1 (SCH-23390) receptor binding affinity

[4] = molecular target: Serotonin 2 (5-HT2) receptor (Homo sapiens) (UniProt P41595+P28223+P28335)
Chain of Serotonin 2 (5-HT2) receptor (Homo sapiens) (P28223 whole entry, looked up): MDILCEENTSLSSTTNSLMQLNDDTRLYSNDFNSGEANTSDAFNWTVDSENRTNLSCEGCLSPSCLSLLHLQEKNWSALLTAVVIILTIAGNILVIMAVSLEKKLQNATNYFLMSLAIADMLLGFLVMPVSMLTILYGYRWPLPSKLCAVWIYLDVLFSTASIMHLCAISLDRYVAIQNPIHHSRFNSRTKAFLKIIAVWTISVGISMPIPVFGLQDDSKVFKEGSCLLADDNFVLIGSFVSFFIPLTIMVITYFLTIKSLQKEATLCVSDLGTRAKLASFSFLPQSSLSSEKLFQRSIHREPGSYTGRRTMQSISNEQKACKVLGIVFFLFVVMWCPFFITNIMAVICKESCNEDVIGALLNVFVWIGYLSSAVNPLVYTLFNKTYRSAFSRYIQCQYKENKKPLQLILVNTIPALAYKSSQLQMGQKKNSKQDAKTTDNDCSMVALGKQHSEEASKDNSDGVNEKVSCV
Chain of Serotonin 2 (5-HT2) receptor (Homo sapiens) (P28335 whole entry, looked up): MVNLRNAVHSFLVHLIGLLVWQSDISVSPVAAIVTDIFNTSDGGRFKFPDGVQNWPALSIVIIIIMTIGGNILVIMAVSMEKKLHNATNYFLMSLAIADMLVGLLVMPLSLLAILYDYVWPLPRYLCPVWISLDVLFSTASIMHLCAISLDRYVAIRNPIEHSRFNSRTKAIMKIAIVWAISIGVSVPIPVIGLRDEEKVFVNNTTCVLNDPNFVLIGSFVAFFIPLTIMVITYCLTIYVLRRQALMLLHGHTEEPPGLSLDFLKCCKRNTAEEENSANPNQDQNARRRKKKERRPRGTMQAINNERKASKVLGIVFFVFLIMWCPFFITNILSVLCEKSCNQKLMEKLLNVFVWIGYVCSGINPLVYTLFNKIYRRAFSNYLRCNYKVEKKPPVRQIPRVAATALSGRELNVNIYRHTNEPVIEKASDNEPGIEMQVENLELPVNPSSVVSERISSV
Chain of Serotonin 2 (5-HT2) receptor (Homo sapiens) (P41595 whole entry, looked up): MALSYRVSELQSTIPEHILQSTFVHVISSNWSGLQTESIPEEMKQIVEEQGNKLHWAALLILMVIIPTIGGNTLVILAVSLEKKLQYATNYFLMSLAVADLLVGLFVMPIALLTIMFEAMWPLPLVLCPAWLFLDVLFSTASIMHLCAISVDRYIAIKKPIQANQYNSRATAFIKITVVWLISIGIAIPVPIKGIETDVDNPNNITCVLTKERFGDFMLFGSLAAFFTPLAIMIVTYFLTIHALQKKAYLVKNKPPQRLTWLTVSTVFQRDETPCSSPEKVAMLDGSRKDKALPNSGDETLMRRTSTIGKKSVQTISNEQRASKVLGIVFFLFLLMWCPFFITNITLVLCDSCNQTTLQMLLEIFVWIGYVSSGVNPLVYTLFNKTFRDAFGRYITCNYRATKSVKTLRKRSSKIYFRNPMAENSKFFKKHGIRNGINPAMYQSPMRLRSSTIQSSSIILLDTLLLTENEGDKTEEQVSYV
Description: 5-hydroxytryptamine 2 receptor binding affinity

[5] = molecular target: D(2) dopamine receptor (Homo sapiens) (UniProt P14416); assay: Dopamine D2 (spiroperidol) receptor binding affinity
[6] = molecular target: D(1A) dopamine receptor (Homo sapiens) (UniProt P21728); assay: Compound was tested for dopamine D1 (SCH-23390) receptor binding affinity, at 1000 nM concentration
[7] = test system: Rattus norvegicus; assay: as §1; conditions: po
[8] = molecular target: D(2) dopamine receptor (Homo sapiens) (UniProt P14416); assay: Compound was tested for dopamine D2 (spiroperidol) receptor binding affinity at 2500 nM concentration
[9] = molecular target: D(1A) dopamine receptor (Homo sapiens) (UniProt P21728); assay: Compound was tested for dopamine D1 (SCH-23390) receptor binding affinity, at 2500 nM concentration
[10] = molecular target: D(2) dopamine receptor (Homo sapiens) (UniProt P14416); assay: Compound was tested for dopamine D2 (spiroperidol) receptor binding affinity; Not active
[11] = molecular target: D(1A) dopamine receptor (Homo sapiens) (UniProt P21728); assay: Compound was tested for dopamine D1 (SCH-23390) receptor binding affinity; Not active

Chain of D(2) dopamine receptor (Homo sapiens) (P14416 whole entry): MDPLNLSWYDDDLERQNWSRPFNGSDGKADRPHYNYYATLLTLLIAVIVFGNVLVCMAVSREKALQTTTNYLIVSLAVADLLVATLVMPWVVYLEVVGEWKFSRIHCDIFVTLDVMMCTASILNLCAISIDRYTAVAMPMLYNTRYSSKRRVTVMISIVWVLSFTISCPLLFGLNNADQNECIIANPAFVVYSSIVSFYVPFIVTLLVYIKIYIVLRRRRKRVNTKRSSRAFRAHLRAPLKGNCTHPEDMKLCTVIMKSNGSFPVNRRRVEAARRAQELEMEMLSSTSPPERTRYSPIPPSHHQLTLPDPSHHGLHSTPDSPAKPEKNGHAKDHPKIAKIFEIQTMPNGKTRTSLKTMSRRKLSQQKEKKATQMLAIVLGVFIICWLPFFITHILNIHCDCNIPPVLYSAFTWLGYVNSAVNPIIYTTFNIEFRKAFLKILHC

SMILES | Binding affinity [3] [nM] | Binding affinity [4] [nM] | Binding affinity [5] [nM] | ED50 [2] [mg/kg] | further results
CN1CCN(C(=O)C23CC(c4ccccc42)c2ccccc23)CC1 |  |  |  | > 80 | inhibition [1]: 0%
CC[S+]([O-])c1ncccc1C1(O)CCN(CC23CC(c4ccccc42)c2ccccc23)CC1 (centres undefined) | 13 | 39 | 42 | 0.6 | 
O[C@@H](c1cccnc1)C1CCN(CC23CC(c4ccccc42)c2ccc(Cl)cc23)CC1 (some centres undefined) | 63 | 4 | 14 | 5 | 
CC(C)(C)C1(O)CCN(CC23CC(c4ccccc42)c2ccc(Cl)cc23)CC1 (centres undefined) | 7 | 1 | 5 | 0.6 | 
CCOC(OCC)C(=O)NC1CCN(CC23CC(c4ccccc42)c2ccc(Cl)cc23)CC1 (centres undefined) | 76 | 40 | 25 | 2.5 | 
c1ccc2c(c1)C1CC2(CN2CCC(N3CCOCC3)CC2)c2ccccc21 |  |  | 57 | 10 | inhibition [6]: 17%
CN1CCN(C2=Nc3cc(Cl)ccc3Nc3ccccc32)CC1 [CLOZAPINE] |  |  |  |  | ED50 [7]: 40 mg/kg
NCC12CC(c3ccccc31)c1ccccc12 |  |  |  | > 80 | Binding affinity [10]: inactive; Binding affinity [11]: inactive
Clc1ccc2c(c1)C1(CN3CCC(Nc4ncccn4)CC3)CC2c2ccccc21 (centres undefined) | 351 | 2 | 49 | 5 | 

Now from value to compound, other results behind:

Binding affinity [3] [nM] | Binding affinity [4] [nM] | Binding affinity [5] [nM] | SMILES | ED50 [2] [mg/kg] | further results
610 | 84 | 101 | c1ccc(Cn2cncc2CCNCC23CC(c4ccccc42)c2ccccc23)cc1 | 80 | 
 | 314 |  | CN1CCN(CC23CC(c4ccccc42)c2ccccc23)CC1 | > 80 | inhibition [8]: 18%; inhibition [9]: 14%
60 | 11 | 36 | C[C@@H]1CN(CCCNCC23CC(c4ccccc42)c2ccccc23)C[C@@H](C)O1 | > 80 | 
132 | 227 | 265 | c1cnc(NCCCNCC23CC(c4ccccc42)c2ccccc23)nc1 | > 80 | 
349 | 21 | 222 | c1ccc2c(c1)C1CC2(CNCCCN2CCOCC2)c2ccccc21 | > 80 | 
